The values that follow come from patent publication US7285621B2, “Multiple branch peptide construction” (Ambrilia Biopharma, priority 1999, dated 2007).

One series relates to H × 10 (HIV-1) strain. The protocol: SPC3 is (GPGRAF)8-(K)4-(K)2-K-βA-OH as disclosed in WO95/07929. D4 and D5 refer to days 4 and 5 of the experiment. OD stands for Optical Density. N.B. Experiments were performed with non diluted virus solution.
The test system of a further series is C57/BL6 and Balb-C mice. Briefly: Intra-cerebroventricular injection toxicity in mice. Format: in vivo. Conditions: 3×10^−3 M, 100 μg of peptide per 20 g mouse.

Where two headings read alike, the source gives them in different places.

By Inhibition is commonly meant the relative decrease from the control value, in per cent. Low values mean little suppression, high ones strong suppression. Take `CC(C)C[C@H](NC(=O)[C@@H]1CCCN1C(=O)[C@H](CO)NC(=O)[C@H](Cc1ccc(O)cc1)NC(=O)CNC(=O)[C@H](CCC(N)=O)NC(=O)[C@@H](N)CCCNC(=N)N)C(=O)NCCCC[C@H](NC(=O)[C@H](CC(C)C)NC(=O)[C@@H]1CCCN1C(=O)[C@H](CO)NC(=O)[C@H](Cc1ccc(O)cc1)NC(=O)CNC(=O)[C@H](CCC(N)=O)NC(=O)[C@@H](N)CCCNC(=N)N)C(=O)NCCCC[C@H](NC(=O)[C@H](CCCCNC(=O)[C@H](CC(C)C)NC(=O)[C@@H]1CCCN1C(=O)[C@H](CO)NC(=O)[C@H](Cc1ccc(O)cc1)NC(=O)CNC(=O)[C@H](CCC(N)=O)NC(=O)[C@@H](N)CCCNC(=N)N)NC(=O)[C@H](CC(C)C)NC(=O)[C@@H]1CCCN1C(=O)[C@H](CO)NC(=O)[C@H](Cc1ccc(O)cc1)NC(=O)CNC(=O)[C@H](CCC(N)=O)NC(=O)[C@@H](N)CCCNC(=N)N)C(=O)NCCCC[C@H](NC(=O)[C@H](CCCCNC(=O)[C@H](CCCCNC(=O)[C@H](CC(C)C)NC(=O)[C@@H]1CCCN1C(=O)[C@H](CO)NC(=O)[C@H](Cc1ccc(O)cc1)NC(=O)CNC(=O)[C@H](CCC(N)=O)NC(=O)[C@@H](N)CCCNC(=N)N)NC(=O)[C@H](CC(C)C)NC(=O)[C@@H]1CCCN1C(=O)[C@H](CO)NC(=O)[C@H](Cc1ccc(O)cc1)NC(=O)CNC(=O)[C@H](CCC(N)=O)NC(=O)[C@@H](N)CCCNC(=N)N)NC(=O)[C@H](CCCCNC(=O)[C@H](CC(C)C)NC(=O)[C@@H]1CCCN1C(=O)[C@H](CO)NC(=O)[C@H](Cc1ccc(O)cc1)NC(=O)CNC(=O)[C@H](CCC(N)=O)NC(=O)[C@@H](N)CCCNC(=N)N)NC(=O)[C@H](CC(C)C)NC(=O)[C@@H]1CCCN1C(=O)[C@H](CO)NC(=O)[C@H](Cc1ccc(O)cc1)NC(=O)CNC(=O)[C@H](CCC(N)=O)NC(=O)[C@@H](N)CCCNC(=N)N)C(=O)NCCC(=O)O` [RL1, (RQGYSPL)8-(K)4-(K)2-K-βA-OH]: the Inhibition amounted to 79.82% with H × 10 (HIV-1) strain (Molarity 1 × 10^−5, day 4, non diluted virus solution); 31.29% in the series with H × 10 (HIV-1) strain (Molarity 1 × 10^−6, day 4, non diluted virus solution); 99.09% in the series with H × 10 (HIV-1) strain (Molarity 5 × 10^−5, day 4, non diluted virus solution); 99.75% in the series on H × 10 (HIV-1) strain (Molarity 5 × 10^−5, day 5, non diluted virus solution); 61.45% in the series with H × 10 (HIV-1) strain (Molarity 5 × 10^−6, day 4, non diluted virus solution). In the series with C57/BL6 and Balb-C mice, the “cellular toxicity and lethal activity” value is listed as “neither cellular toxicity nor lethal activity”.
